Results as given in PMC10298474 (2023).

Test system: Cy5-labeled 16 bp WC-helix (RNA, duplex) AGAGGGAAUUCCCUCU
Assay: microscale thermophoresis
Settings: 100 mM K+, 2 mM Mg2+; 10 mM HEPES pH 7.5, 0.5 mM EDTA, 0.1% Tween 20, 25 °C; 50 nM RNA; single-site fit

KD: < 0.1 nM
SMILES: C[C@@H]1O[C@@H](OC[C@H]2O[C@@H](Oc3c(-c4ccc(O)c(O)c4)oc4cc(O)cc(O)c4c3=O)[C@H](O)[C@@H](O)[C@@H]2O)[C@H](O)[C@H](O)[C@H]1O
